{"source": "patent US10933021B2", "about": "“Compositions of gallium (III) complexes for oral administration” (Altum Pharmaceuticals Inc., priority 2017, dated 2021)", "origin": "cited, not measured here", "key": {"apoptosis induction": {"system": "apoptosis induction", "details": "compared to simple gallium salts such as gallium nitrate"}, "[1]": {"details": "pH 7.4, serum"}, "[2]": {"details": "seven patients, oral enteric coated tablets of crystalline GaQ3, 10 mg, 20 mg, 30 mg strengths"}, "[3]": {"system": "tumor cell lines resistant to gallium nitrate"}, "albumin": {"molecular_target": "albumin (Homo sapiens, UniProt P02768)", "sequence (P02768 25-609)": "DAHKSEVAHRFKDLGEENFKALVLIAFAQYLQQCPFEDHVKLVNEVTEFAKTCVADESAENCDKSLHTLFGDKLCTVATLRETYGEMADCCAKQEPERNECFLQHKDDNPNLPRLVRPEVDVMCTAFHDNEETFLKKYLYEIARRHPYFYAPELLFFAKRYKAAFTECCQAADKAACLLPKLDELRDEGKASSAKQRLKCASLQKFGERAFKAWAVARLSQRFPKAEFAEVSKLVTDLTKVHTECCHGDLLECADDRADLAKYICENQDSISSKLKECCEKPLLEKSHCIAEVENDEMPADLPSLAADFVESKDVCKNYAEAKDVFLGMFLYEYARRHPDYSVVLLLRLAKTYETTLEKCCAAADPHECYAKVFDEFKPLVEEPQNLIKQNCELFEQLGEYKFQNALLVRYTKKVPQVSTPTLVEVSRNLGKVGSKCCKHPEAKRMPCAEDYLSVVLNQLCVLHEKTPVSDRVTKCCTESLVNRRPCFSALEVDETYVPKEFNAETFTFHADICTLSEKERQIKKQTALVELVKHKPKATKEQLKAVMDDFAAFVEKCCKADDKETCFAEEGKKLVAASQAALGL", "details": "human serum"}, "transferrin (Tf)": {"molecular_target": "transferrin (Tf) (Homo sapiens, UniProt P02787)", "sequence (P02787 20-698)": "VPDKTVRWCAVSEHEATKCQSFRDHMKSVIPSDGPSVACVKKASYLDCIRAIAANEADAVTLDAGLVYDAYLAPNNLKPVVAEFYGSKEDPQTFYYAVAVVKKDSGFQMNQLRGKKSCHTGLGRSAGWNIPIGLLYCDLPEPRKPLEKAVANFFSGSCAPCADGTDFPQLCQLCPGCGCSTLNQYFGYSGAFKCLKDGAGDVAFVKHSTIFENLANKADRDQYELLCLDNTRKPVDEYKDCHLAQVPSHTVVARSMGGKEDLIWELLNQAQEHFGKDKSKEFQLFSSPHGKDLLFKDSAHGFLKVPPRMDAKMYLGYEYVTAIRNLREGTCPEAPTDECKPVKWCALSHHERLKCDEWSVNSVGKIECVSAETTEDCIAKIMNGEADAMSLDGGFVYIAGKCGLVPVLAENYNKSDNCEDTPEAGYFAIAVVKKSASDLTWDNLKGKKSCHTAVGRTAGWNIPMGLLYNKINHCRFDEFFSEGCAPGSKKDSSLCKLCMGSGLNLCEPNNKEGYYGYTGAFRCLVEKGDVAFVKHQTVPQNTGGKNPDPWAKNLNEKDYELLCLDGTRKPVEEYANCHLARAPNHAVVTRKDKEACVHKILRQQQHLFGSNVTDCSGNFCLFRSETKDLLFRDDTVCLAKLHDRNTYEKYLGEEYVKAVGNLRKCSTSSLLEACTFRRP", "details": "human serum"}, "[4]": {"details": "pH values below the pKa of 8-hydroxyquinoline (5.01)"}}, "data": [{"smiles": "[Ga+3].[O-]c1cccc2cccnc12.[O-]c1cccc2cccnc12.[O-]c1cccc2cccnc12", "note": "[GaQ3, tris (8-quinolinolato) gallium (III)]", "values": [{"measurement": "apoptosis induction relative to gallium nitrate", "setting": "apoptosis induction", "result": "ca. 3 ×"}, {"measurement": "stability in serum", "setting": "[1]", "result": "very stable"}, {"measurement": "tolerability", "setting": "[2]", "result": "well tolerated"}, {"measurement": "activity against tumor cell lines resistant to gallium nitrate", "setting": "[3]", "result": "active"}, {"measurement": "binding to albumin", "setting": "albumin", "result": "binds very weakly"}, {"measurement": "solubility in water", "result": "18-22 ppm"}, {"measurement": "binding to transferrin (Tf)", "setting": "transferrin (Tf)", "result": "strongly"}, {"measurement": "integrity of complexed structure", "setting": "[4]", "result": "disrupted completely"}]}]}
